Experimental data published in US20220056019A1, “FARNESOID X RECEPTOR AGONISTS AND USES THEREOF” (Metacrine, Inc., priority 2018, published 2022).

The molecules below were run against T1, hFXR (Homo sapiens, UniProt Q96RI1) (assay: In Vitro FXR Assay (TK): TK-ECRE-luc reporter in transfected CV-1 cells). Conditions: 18 hrs incubation, luminescence.
T1 construct: expressed in transfected cells; host or cells: CV-1 cells
T1 sequence (Q96RI1 1-486): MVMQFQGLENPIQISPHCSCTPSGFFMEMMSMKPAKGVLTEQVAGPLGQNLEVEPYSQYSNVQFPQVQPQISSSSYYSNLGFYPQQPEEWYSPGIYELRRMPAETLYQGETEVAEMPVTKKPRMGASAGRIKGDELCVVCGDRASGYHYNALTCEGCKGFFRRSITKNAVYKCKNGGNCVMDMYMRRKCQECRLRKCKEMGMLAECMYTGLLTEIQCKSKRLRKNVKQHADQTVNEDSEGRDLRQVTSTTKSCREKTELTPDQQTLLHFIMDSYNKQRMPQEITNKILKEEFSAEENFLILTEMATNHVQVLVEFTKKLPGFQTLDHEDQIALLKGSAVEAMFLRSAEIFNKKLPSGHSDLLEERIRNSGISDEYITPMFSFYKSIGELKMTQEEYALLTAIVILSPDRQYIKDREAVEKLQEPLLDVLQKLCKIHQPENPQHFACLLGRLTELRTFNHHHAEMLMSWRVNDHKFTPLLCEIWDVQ
T1 sequence (P19793 1-462 partner): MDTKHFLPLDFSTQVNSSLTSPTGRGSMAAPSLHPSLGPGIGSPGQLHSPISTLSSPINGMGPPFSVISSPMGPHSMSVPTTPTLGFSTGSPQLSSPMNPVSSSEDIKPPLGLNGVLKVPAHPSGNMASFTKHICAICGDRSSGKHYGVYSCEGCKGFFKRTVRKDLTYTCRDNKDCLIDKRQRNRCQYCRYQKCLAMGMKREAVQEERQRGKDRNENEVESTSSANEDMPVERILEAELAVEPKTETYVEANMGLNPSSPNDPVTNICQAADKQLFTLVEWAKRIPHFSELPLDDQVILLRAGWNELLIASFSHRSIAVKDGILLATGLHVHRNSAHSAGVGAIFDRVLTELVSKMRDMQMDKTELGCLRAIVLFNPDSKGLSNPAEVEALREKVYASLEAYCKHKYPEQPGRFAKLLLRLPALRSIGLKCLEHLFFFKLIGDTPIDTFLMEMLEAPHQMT
Format: cell-based
Procedure, shortened: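 CV-1 cells in DMEM with 10% charcoal-stripped FBS were transiently co-transfected with hFXR, hRXR, TK-ECRE-luc reporter and pCMX-YFP plasmids over 18 h at 37 °C. Compounds serially diluted in DMSO were added for 18 h; cells were then lysed and luciferase luminescence measured.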

EC50 [µM]	Compound
≤ 0.05	COc1ccc(C23CCC(CN(c4cc(-c5coc(C(C)C)n5)ccn4)C(=O)[C@H]4CC[C@H](OC(=O)NC5COC5)CC4)(CC2)CC3)cc1C [Compound 23.04, 4-((4-(2-Isopropyloxazol-4-yl)pyridin-2-yl)((4-(4-methoxy-3-methylphenyl)bicyclo[2.2.2]octan-1-yl)methyl)carbamoyl)(trans-cyclohexyl)oxetan-3-ylcarbamate]
≤ 0.05	COc1ccc(C23CCC(CN(c4cc(-c5cnn(C6(C)CCC6)c5)ccn4)C(=O)[C@H]4CC[C@H](OC(=O)N5CC(CO)C5)CC4)(CC2)CC3)cc1C [Compound 25.21, 4-(((4-(4-Methoxy-3-methylphenyl)bicyclo[2.2.2]octan-1-yl)methyl)(4-(1-(1-methylcyclobutyl)-1H-pyrazol-4-yl)pyridin-2-yl)carbamoyl)(trans-cyclohexyl) 3-(hydroxymethyl)azetidine-1-carboxylate]
≤ 0.05	COCC(=O)N[C@H]1CC[C@H](C(=O)N(CC23CCC(c4ccc(OC)c(C)c4)(CC2)CC3)c2cc(-c3cnc(C4CC4)s3)ccn2)CC1 [Compound 9.07, (trans)-N-(4-(2-Cyclopropylthiazol-5-yl)pyridin-2-yl)-N-((4-(4-methoxy-3-methylphenyl)bicyclo[2.2.2]octan-1-yl)methyl)-4-(2-methoxyacetamido)cyclohexanecar-boxamide]
≤ 0.05	COc1ccc(C23CCC(CN(c4cc(-c5cnn(C6(C)CCC6)c5)ccn4)C(=O)[C@H]4CC[C@H](OC(=O)NCCCO)CC4)(CC2)CC3)cc1C [Compound 25.17, 4-(((4-(4-Methoxy-3-methylphenyl)bicyclo[2.2.2]octan-1-yl)methyl)(4-(1-(1-methylcyclobutyl)-1H-pyrazol-4-yl)pyridin-2-yl)carbamoyl)(trans-cyclohexyl)(3-hydroxypropyl)carbamate]
≤ 0.05	COc1ccc(C23CCC(CN(c4cc(-n5ccc(C(C)C)n5)ccn4)C(=O)[C@H]4CC[C@H](OC(=O)N5CC(O)C5)CC4)(CC2)CC3)cc1C [Compound 23.15, 4-((4-(3-Isopropyl-1H-pyrazol-1-yl)pyridin-2-yl)((4-(4-methoxy-3-methylphenyl)bicyclo[2.2.2]octan-1-yl)methyl)carbamoyl)cyclo-hexyl trans-3-hydroxyazetidine-1-carboxylate]
0.05 to 1	COc1ccc([C@H]2CC[C@H](CN(c3cccc(-c4cnn(C(C)C)c4)c3)C(=O)[C@H]3CC[C@H](CNC(=O)C(C)C)CC3)CC2)cc1C [Compound 12.02, (trans)-4-(Isobutyramidomethyl)-i-(3-(1-isopropyl-1H-pyrazol-4-yl)phenyl)-N-(((trans)-4-(4-methoxy-3-methylphenyl)cyclohexyl)methyl) cyclohexanecarboxamide]

Further lines, the molecule ahead of its results:

Compound	EC50 [µM]
COc1ccc([C@H]2CC[C@H](CN(c3cc(-c4coc(C5CC5)n4)ccn3)C(=O)[C@H]3CC[C@H](OC(=O)N4CCN(C)CC4)CC3)CC2)cc1Cl [Compound 2.07, trans-4-(((trans-4-(3-Chloro-4-methoxyphenyl)cyclohexyl)methyl)(4-(2-cyclopropyloxazol-4-yl)pyridin-2-yl)carbamoyl)cyclohexyl 4-methylpiperazine-1-carboxylate]	≤ 0.05
COc1ccc([C@H]2CC[C@H](CN(c3cc(-c4coc(C5CC5)n4)ccn3)C(=O)[C@H]3CC[C@H](OC(=O)NCC(C)(C)CO)CC3)CC2)nc1C [Compound 1, trans-4-((4-(2-Cyclopropyloxazol-4-yl)pyridin-2-yl)((trans-4-(5-methoxy-6-methylpyridin-2-yl)cyclohexyl)methyl)carbamoyl)cyclohexyl (3-hydroxy-2,2-dimethylpropyl)carbamate]	≤ 0.05
COc1ccc([C@H]2CC[C@H](CN(c3cccc(-n4cnc(C5CC5)n4)c3)C(=O)[C@H]3CC[C@H](OC(=O)N4CC(O)C4)CC3)CC2)cc1C [Compound 5, trans-4-((3-(3-Cyclopropyl-1H-1,2,4-triazol-1-yl)phenyl)((trans-4-(4-methoxy-3-methylphenyl)cyclohexyl)methyl)carbamoyl)cyclohexyl 3-hydroxyazetidine-1-carboxylate]	≤ 0.05
CCc1ncc(-c2ccnc(N(C[C@H]3CC[C@H](c4ccc(OC)c(C)c4)CC3)C(=O)[C@H]3CC[C@H](OC(=O)N4CC(O)C4)CC3)c2)s1 [Compound 2.42, trans-4-((4-(2-Ethylthiazol-5-yl)pyridin-2-yl)((trans-4-(4-methoxy-3-methylphenyl)cyclohexyl)methyl)carbamoyl)cyclohexyl 3-hydroxyazetidine-1-carboxylate]	≤ 0.05
COc1ccc(C23CCC(CN(c4cccc(-c5nnc(C6CC6)o5)c4)C(=O)[C@H]4CC[C@H](OC(=O)N5CC(O)C5)CC4)(CC2)CC3)cc1C [Compound 4.32, 4-((3-(5-Cyclopropyl-1,3,4-oxadiazol-2-yl)phenyl)((4-(4-methoxy-3-methylphenyl)bicyclo [2.2.2]octan-1-yl)methyl)carbamoyl)cyclohexyl trans-3-hydroxyazetidine-1-carboxylate]	≤ 0.05
COc1ccc([C@H]2CC[C@H](CN(c3cccc(-c4cnn(C(C)C)c4)c3)C(=O)[C@H]3CC[C@H](NC(=O)CCCO)CC3)CC2)cc1C [Compound 14, trans-4-(4-Hydroxybutanamido)-N-(3-(1-isopropyl-1H-pyrazol-4-yl)phenyl)-N-((trans-4-(4-methoxy-3-methylphenyl)cyclohexyl)methyl)cyclohexanecarboxamide]	0.05 to 1
COc1ccc(C23CCC(CN(c4cc(-c5cnn(C(C)C)c5)ccn4)C(=O)[C@H]4CC[C@H](OC(=O)N5CC(S(C)(=O)=O)C5)CC4)(CC2)CC3)cc1C [Compound 4.11, 4-((4-(1-Isopropyl-1H-pyrazol-4-yl)pyridin-2-yl)((4-(4-methoxy-3-methylphenyl)bicyclo [2.2.2]octan-1-yl)methyl)carbamoyl)cyclohexyl 3-(methylsulfonyl) azetidine-trans-1-carboxylate]	≤ 0.05
COc1ccc(C23CCC(CN(c4cc(-c5cnn(C(C)C)c5)ccn4)C(=O)[C@H]4CC[C@H](OC(=O)NCC(C)(C)O)CC4)(CC2)CC3)cc1C [Compound 4.06, 4-((4-(1-Isopropyl-1H-pyrazol-4-yl)pyridin-2-yl)((4-(4-methoxy-3-methylphenyl)bicyclo [2.2.2]octan-1-yl)methyl)carbamoyl)cyclohexyl (2-hydroxy-2-methylpropyl)trans-carbamate]	≤ 0.05
COc1ccc([C@H]2CC[C@H](CN(c3cc(-c4cnn(C(C)C)c4)ccn3)C(=O)[C@H]3CC[C@H](OC(=O)NC(C)C)CC3)CC2)cc1C [Compound 2.17, trans-4-((4-(1-Isopropyl-1H-pyrazol-4-yl)pyridin-2-yl)(((trans)-4-(4-methoxy-3-methylphenyl)cyclohexyl)methyl)carbamoyl) cyclohexyl isopropylcarbamate]	≤ 0.05
COc1ccc([C@H]2CC[C@H](CN(c3cc(-c4cnn(C(C)C)c4)ccn3)C(=O)[C@H]3CC[C@H](OC(=O)NCC(C)(C)CO)CC3)CC2)cc1C [Compound 2.20, trans-4-((4-(1-Isopropyl-1H-pyrazol-4-yl)pyridin-2-yl) ((trans-4-(4-methoxy-3-methylphenyl)cyclohexyl)methyl)carbamoyl) cyclohexyl(3-hydroxy-2,2-dimethylpropyl)carbamate]	≤ 0.05
